Measured values as given in patent publication US20230348487A1, “2-AMINOPYRIMIDINE COMPOUND AND PHARMACEUTICAL COMPOSITION THEREOF AND APPLICATION THEREOF” (GUANGZHOU SALUSTIER BIOSCIENCES CO., LTD., priority 2021, published 2023).

Columns and labels:
[1] = target: JAK1 (Homo sapiens (Human), UniProt P23458); assay: Z′-Lyte kinase inhibitory activity test; assay type: biochemical; conditions: ATP concentration Km
How it was run: (§1)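 Compounds (10 μM top final, 3-fold, 10 points, duplicate wells) were incubated with titrated kinase, ATP and 2 μM peptide at 30 °C for 1.5 h in HEPES pH 7.5/MgCl2/EGTA/Brij-35 buffer. Development followed for 1 h; phosphorylation ratio gave kinase inhibition, experiments repeated at least thrice.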

[2] = target: JAK2 (Homo sapiens (Human), UniProt O60674); assay: Z′-Lyte kinase inhibitory activity test; assay type: biochemical; conditions: ATP concentration Km
JAK2, sequence (O60674 whole entry): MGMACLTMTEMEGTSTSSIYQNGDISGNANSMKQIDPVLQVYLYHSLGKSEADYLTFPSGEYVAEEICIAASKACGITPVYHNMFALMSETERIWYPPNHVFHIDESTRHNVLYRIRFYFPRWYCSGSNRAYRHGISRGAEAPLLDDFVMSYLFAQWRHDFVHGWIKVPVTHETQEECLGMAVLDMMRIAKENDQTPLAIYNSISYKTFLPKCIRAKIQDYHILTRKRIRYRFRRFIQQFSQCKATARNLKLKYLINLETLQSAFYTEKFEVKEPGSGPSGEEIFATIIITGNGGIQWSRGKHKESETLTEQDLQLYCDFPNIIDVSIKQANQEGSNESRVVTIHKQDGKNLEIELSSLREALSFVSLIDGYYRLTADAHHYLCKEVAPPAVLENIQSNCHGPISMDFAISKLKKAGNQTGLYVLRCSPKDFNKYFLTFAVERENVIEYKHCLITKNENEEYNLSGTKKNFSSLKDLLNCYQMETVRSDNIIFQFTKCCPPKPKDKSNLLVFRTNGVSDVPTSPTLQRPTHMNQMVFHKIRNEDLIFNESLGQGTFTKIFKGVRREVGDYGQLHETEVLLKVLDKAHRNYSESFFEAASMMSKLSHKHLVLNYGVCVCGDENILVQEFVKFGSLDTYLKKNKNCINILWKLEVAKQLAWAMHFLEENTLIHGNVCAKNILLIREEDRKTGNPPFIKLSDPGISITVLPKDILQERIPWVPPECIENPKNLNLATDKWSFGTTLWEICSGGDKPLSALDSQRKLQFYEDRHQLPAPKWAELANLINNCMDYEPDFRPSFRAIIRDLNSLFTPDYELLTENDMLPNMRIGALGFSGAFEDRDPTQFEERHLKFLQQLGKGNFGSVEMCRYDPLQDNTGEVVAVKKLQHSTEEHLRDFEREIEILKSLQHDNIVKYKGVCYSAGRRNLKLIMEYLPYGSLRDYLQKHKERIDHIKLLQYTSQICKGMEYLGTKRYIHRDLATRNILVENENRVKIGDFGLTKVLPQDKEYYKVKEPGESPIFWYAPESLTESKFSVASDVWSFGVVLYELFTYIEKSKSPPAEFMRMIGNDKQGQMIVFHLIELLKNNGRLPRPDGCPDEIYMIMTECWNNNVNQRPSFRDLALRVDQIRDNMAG
How it was run: as §1

[3] = target: JAK3 (Homo sapiens (Human), UniProt P52333); assay: Z′-Lyte kinase inhibitory activity test; assay type: biochemical
JAK3, sequence (P52333 whole entry): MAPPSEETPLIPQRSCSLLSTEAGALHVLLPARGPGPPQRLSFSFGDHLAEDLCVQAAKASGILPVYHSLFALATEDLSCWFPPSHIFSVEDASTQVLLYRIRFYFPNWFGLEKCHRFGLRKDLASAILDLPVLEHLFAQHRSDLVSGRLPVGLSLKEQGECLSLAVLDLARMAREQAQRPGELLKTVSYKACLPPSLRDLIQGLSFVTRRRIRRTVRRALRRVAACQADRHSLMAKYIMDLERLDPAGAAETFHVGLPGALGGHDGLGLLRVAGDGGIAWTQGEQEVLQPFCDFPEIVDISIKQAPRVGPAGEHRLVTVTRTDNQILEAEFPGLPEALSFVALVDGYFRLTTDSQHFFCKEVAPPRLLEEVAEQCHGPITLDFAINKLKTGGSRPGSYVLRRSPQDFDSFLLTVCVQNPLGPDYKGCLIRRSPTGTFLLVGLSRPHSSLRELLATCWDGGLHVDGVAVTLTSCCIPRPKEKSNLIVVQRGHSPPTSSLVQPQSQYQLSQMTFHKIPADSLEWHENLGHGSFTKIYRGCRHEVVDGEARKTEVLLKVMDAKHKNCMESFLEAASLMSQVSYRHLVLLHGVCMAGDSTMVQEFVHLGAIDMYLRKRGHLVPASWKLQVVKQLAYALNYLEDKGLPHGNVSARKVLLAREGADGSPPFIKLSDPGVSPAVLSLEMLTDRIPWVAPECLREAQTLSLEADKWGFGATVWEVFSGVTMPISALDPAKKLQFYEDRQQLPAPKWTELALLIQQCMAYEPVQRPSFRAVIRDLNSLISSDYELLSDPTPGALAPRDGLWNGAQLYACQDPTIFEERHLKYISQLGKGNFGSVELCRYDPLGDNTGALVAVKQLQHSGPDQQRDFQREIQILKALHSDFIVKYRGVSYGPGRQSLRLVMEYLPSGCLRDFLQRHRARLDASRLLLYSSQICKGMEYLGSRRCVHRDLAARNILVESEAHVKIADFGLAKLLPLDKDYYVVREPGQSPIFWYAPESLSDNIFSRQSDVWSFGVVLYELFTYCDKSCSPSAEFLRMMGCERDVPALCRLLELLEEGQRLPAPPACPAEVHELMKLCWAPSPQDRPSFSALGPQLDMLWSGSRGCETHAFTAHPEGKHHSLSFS
How it was run: as §1

[4] = target: TYK2 (Homo sapiens (Human), UniProt P29597); assay: Z′-Lyte kinase inhibitory activity test; assay type: biochemical; conditions: ATP concentration Km
TYK2, sequence (P29597 whole entry): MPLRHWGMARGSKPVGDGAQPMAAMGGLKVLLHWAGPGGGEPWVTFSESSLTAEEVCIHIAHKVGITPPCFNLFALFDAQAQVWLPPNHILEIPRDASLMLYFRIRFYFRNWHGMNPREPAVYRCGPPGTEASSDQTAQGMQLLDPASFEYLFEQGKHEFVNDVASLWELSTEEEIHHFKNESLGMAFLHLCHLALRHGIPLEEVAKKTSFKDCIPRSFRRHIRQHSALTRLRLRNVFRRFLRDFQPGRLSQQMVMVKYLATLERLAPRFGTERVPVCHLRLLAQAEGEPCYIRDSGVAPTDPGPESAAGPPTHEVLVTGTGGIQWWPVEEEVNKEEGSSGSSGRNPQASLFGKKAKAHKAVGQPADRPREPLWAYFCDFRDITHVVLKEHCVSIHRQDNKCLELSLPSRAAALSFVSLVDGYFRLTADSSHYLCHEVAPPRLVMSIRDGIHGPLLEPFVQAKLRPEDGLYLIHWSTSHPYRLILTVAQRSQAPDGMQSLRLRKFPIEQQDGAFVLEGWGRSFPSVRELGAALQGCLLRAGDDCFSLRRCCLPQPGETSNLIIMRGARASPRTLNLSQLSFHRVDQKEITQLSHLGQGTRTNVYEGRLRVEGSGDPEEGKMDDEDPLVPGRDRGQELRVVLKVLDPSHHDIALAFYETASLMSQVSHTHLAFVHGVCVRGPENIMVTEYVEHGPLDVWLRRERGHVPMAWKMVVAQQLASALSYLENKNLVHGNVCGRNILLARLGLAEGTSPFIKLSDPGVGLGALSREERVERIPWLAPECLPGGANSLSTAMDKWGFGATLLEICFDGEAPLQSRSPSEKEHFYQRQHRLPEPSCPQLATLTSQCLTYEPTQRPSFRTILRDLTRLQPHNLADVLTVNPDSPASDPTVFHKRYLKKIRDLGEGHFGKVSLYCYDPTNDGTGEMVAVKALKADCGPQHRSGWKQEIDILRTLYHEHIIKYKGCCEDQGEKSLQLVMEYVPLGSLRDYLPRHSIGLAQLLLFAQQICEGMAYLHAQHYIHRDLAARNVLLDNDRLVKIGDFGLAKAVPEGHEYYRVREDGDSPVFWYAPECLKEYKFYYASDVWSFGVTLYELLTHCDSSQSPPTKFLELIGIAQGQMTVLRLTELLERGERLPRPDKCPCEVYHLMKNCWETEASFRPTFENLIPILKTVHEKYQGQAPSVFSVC
How it was run: as §1

[5] = test system: JAK3-STAT signaling in U937 cells; assay: Western blot of JAK3-STAT signaling in U937 cells; assay type: cell-based, human
Protocol: Cell line: human acute myeloid leukemia cell line U937
Time dependent experiment: the tested molecule LS6-45 was co-incubated with U937 cells at a fixed concentration (100 nM), and the total cell protein was extracted at a specific action time. Dose dependent experiment: After co-incubating the tested molecule LS6-45 at different concentrations with U937 cell line for 10 hours, the total cell protein was extracted. Suspended cells U937 were centrifuged to remove the supernatant, washed twice with PBS, and then added an appropriate amount of lysate mixture (RIPA lysate (strong): phosphatase inhibitor mixture (50×): PMSF=100:1:1), lysed for 30 minutes on ice, and centrifugated at 12000 rpm at 4° C. for 15 min). Took the supernatant and discarded the sediment. Took an appropriate amount of supernatant to measure the protein concentration by the BCA method. Then added loading buffer at a 5:1 ratio and boiled at 100° C. for 7 minutes to be used for Western Blot experiments or stored in a −80° C. freezer for later use.
The experimental results are shown in FIG. 4, wherein the Western Blot analysis of compound LS6-45 on JAK3, STAT3, STAT5 proteins and their time/dose-dependent phosphorylation was performed, and GAPDH was used as an internal reference. In FIG. 4, A represents the U937 cell line treated with compound LS6-45 (100 nM) in a time-dependent manner, while B represents the U937 cell line treated with compound LS6-45 in a dose-dependent manner for 10 hours (diluted at five concentrations of 800 nM 1:4).

[6] = test system: U937 cells; assay: Cell cycle detection in U937 cells; assay type: cell-based, human; conditions: 24 hours
Protocol: Cell cycle detection: Took cells in good growth status and adjusted the density to 8×10^5 cells/mL, and evenly distributed them into 6-well plates, 2 mL per well. Then the compound was diluted in gradient and added to the cell suspension, and incubated in an incubator for 24 hours. BD Cycletest™ Plus DNA Reagent Kit was used for staining in this experiment. After 24 hours, the cells were collected into a 15 mL centrifuge tube, and the 6-well plate was washed twice with PBS. The washing solutions were merged into a 15 mL centrifuge tube, centrifuged at 12000 rpm for 5 minutes, and the supernatant was discarded. Added 5 mL of buffer solution to each tube and the cells were gently resuspended. Centrifuge: 12000 rpm for 5 minutes, the supernatant was carefully removed and left about 50 μL of liquid without discarding. Added 1.5 mL of buffer solution to each tube to gently resuspend the cells, which were carefully transferred to a 1.5 mL EP tube. Adjusted the cell concentration to 1×10^6 cells/mL, to meet the requirements of 5×10^5 cells to complete this experiment. Centrifuged at 1200 rpm for 5 minutes, and the supernatant was carefully aspirated. Added 125 μL of Solution A, mixed gently and reacted at room temperature for 10 minutes. Added 100 μL of Solution B, mixed gently and reacted at room temperature for 10 minutes. […]

[7] = test system: U937 cells; assay: Cell apoptosis detection in U937 cells; assay type: cell-based, human; conditions: 48 hours
Protocol: Cell apoptosis detection: Took cells in good growth status and adjusted the density to 8×10^5 cells/mL, evenly distributed them into 6-well plates, 2 mL per well. Then the compound was diluted in gradient and added to the cell suspension, and placed in the incubator for 48 hours. PE coupled Annexin V apoptosis detection kit was used for staining in this experiment. After 48 hours, cells were collected into a 15 mL centrifuge tube, and the 6-well plate was washed twice with PBS. The washing solutions were merged into a 15 mL centrifuge tube, centrifuged at 1200 rpm for 5 minutes, and the supernatant was discarded. The cells were washed with 1.5 mL of cold PBS and resuspended and transferred to a 1.5 mL EP tube. Repeated washing with cold PBS once and after centrifugation at 1200 rpm for 5 minutes, discarded the supernatant. Added 100 μL of 1×Binding Buffer (PBS dilution) to resuspend the cells. Added 2.5 μL of Annexin V-PE and 2.5 μL 7-AAD, mixed gently and reacted at room temperature in the dark for 15 minutes. Added 400 μL of 1× Binding Buffer, and then perform detection with an up-flow cytometry within 1 hour. Note: It is necessary to set up a single label control tube with apoptotic cells, and sample tubes with the same conditions; place the stained samples on ice.

JAK1, sequence (P23458 whole entry): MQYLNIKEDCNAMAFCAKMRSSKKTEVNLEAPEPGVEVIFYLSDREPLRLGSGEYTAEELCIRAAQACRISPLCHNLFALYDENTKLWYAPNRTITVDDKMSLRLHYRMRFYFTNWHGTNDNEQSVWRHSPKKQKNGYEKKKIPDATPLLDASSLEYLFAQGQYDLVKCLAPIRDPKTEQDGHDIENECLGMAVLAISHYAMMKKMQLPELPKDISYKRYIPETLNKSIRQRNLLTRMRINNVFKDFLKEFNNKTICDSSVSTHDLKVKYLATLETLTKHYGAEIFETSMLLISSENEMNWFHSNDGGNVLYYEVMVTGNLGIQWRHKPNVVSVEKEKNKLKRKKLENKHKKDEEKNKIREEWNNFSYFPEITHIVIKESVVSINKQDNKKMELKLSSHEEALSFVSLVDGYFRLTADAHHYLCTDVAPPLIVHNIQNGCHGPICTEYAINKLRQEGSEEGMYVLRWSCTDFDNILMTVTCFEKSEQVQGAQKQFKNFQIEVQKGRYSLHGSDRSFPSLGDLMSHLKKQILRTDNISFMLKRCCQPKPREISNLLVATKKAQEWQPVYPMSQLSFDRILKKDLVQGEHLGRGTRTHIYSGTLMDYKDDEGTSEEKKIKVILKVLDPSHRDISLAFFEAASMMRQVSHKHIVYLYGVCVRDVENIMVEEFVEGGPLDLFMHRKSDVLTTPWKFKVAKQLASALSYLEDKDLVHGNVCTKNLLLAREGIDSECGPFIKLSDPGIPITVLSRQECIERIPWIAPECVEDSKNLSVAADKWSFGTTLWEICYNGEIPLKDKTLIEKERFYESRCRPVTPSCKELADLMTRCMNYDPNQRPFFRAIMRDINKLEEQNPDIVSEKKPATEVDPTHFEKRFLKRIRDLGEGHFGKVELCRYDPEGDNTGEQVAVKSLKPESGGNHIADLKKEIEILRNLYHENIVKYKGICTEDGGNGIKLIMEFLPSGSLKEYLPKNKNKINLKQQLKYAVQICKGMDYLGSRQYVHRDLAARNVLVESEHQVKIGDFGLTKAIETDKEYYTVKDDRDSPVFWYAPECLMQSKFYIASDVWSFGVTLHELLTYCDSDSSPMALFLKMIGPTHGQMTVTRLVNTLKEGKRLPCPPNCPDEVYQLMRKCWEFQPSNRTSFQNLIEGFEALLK

SMILES: C=CC(=O)Nc1cc(Nc2ncc(Cl)c(O[C@@H]3CO[C@H]4[C@@H]3OC[C@H]4OC)n2)ccc1N(C)CCN(C)C [LS 6-45]
- IC50 [1]: 13 µM
- IC50 [2]: 2040 nM
- IC50 ([3]; ATP concentration 1 mM): 1.53 nM
- IC50 ([3]; ATP concentration Km): 1.25 nM
- IC50 [4]: 1080 nM
- phosphorylation level of JAK3 (Western blot) ([5]; 50 nM, 10 hours): significantly weakened
- phosphorylation level of JAK3 protein (Western blot) ([5]; 100 nM, 4 hours): effectively reduced the phosphorylation level of JAK3 protein
- JAK3 phosphorylation (Western blot) ([5]; 100 nM, around 8 hours): completely inhibited JAK3 phosphorylation
- phosphorylation levels of downstream proteins STAT3 and STAT5 ([5]; 100 nM, time course): weakened in a time-dependent manner
- phosphorylation level of JAK3 (Western blot) ([5]; 200 nM, 10 hours): almost completely disappeared
- phosphorylation levels of downstream proteins STAT3 and STAT5 ([5]; different concentrations, 10 hours): dose-dependent weakening
- cell cycle related proteins (CDK2, CDK4, CDK6, Cyclin B1, Cyclin D3, Cyclin E1) [6]: significantly down-regulated
- cell cycle ([6]; different concentrations): obvious G0/G1 phase block
- cell apoptosis [7]: No apoptosis was observed
